# Data from the NIST ThermoML archive (doi:10.1021/je8000975).
# Numbers after ± are expanded uncertainties.
# What was measured:
# [1] = Liquid; for speed of sound: Sing-around technique in a fixed-path interferometer
# [2] = xn = mol fraction of the nth substance listed; conditions: 101 kPa, Liquid
structure (smiles),measurement,setting,value
COCCO [2-methoxyethan-1-ol],mass density,[1]; 293.15 K,964.656 ± 0.29 kg/m3
same,speed of sound,[1]; 293.15 K,1359.2 ± 0.85 m/s
same,mass density,[1]; 298.15 K,960.088 ± 0.29 kg/m3
same,speed of sound,[1]; 298.15 K,1341.6 ± 0.84 m/s
same,mass density,[1]; 303.15 K,955.471 ± 0.3 kg/m3
same,speed of sound,[1]; 303.15 K,1324.3 ± 0.84 m/s
CCCCOCCO [2-butoxyethan-1-ol] + COCCO,mass density,"[2]; 293.15 K, x2 = 0.0524",902.021 ± 1.2 kg/m3
same,mass density,"[2]; 293.15 K, x2 = 0.1023",903.942 ± 1.1 kg/m3
same,mass density,"[2]; 293.15 K, x2 = 0.1513",905.929 ± 1.1 kg/m3
same,mass density,"[2]; 293.15 K, x2 = 0.2009",908.026 ± 1 kg/m3
same,mass density,"[2]; 293.15 K, x2 = 0.2491",910.172 ± 0.97 kg/m3
same,mass density,"[2]; 293.15 K, x2 = 0.3006",912.586 ± 0.92 kg/m3
same,mass density,"[2]; 293.15 K, x2 = 0.3411",914.561 ± 0.89 kg/m3
same,mass density,"[2]; 293.15 K, x2 = 0.3986",917.531 ± 0.84 kg/m3
same,mass density,"[2]; 293.15 K, x2 = 0.4484",920.249 ± 0.8 kg/m3
same,mass density,"[2]; 293.15 K, x2 = 0.4994",923.189 ± 0.75 kg/m3
same,mass density,"[2]; 293.15 K, x2 = 0.5492",926.262 ± 0.71 kg/m3
same,mass density,"[2]; 293.15 K, x2 = 0.5987",929.459 ± 0.68 kg/m3
same,mass density,"[2]; 293.15 K, x2 = 0.6489",932.911 ± 0.64 kg/m3
same,mass density,"[2]; 293.15 K, x2 = 0.7291",938.888 ± 0.58 kg/m3
same,mass density,"[2]; 293.15 K, x2 = 0.7487",940.45 ± 0.57 kg/m3
same,mass density,"[2]; 293.15 K, x2 = 0.7996",944.683 ± 0.53 kg/m3
same,mass density,"[2]; 293.15 K, x2 = 0.8491",949.097 ± 0.5 kg/m3
same,mass density,"[2]; 293.15 K, x2 = 0.8992",953.883 ± 0.47 kg/m3
same,mass density,"[2]; 293.15 K, x2 = 0.9495",959.058 ± 0.45 kg/m3
same,mass density,"[2]; 298.15 K, x2 = 0.0522",897.844 ± 1.2 kg/m3
same,mass density,"[2]; 298.15 K, x2 = 0.1029",899.781 ± 1.1 kg/m3
same,mass density,"[2]; 298.15 K, x2 = 0.15",901.679 ± 1.1 kg/m3
same,mass density,"[2]; 298.15 K, x2 = 0.2019",903.86 ± 1 kg/m3
same,mass density,"[2]; 298.15 K, x2 = 0.2489",905.939 ± 0.98 kg/m3
same,mass density,"[2]; 298.15 K, x2 = 0.2999",908.306 ± 0.93 kg/m3
same,mass density,"[2]; 298.15 K, x2 = 0.3514",910.818 ± 0.89 kg/m3
same,mass density,"[2]; 298.15 K, x2 = 0.3994",913.289 ± 0.85 kg/m3
same,mass density,"[2]; 298.15 K, x2 = 0.449",915.99 ± 0.81 kg/m3
same,mass density,"[2]; 298.15 K, x2 = 0.4755",917.493 ± 0.78 kg/m3
same,mass density,"[2]; 298.15 K, x2 = 0.4987",918.836 ± 0.77 kg/m3
same,mass density,"[2]; 298.15 K, x2 = 0.5985",925.072 ± 0.69 kg/m3
same,mass density,"[2]; 298.15 K, x2 = 0.6476",928.432 ± 0.65 kg/m3
same,mass density,"[2]; 298.15 K, x2 = 0.6975",932.045 ± 0.62 kg/m3
same,mass density,"[2]; 298.15 K, x2 = 0.7481",935.968 ± 0.58 kg/m3
same,mass density,"[2]; 298.15 K, x2 = 0.7988",940.157 ± 0.55 kg/m3
same,mass density,"[2]; 298.15 K, x2 = 0.8476",944.484 ± 0.52 kg/m3
same,mass density,"[2]; 298.15 K, x2 = 0.8993",949.386 ± 0.48 kg/m3
same,mass density,"[2]; 298.15 K, x2 = 0.9478",954.336 ± 0.46 kg/m3
same,mass density,"[2]; 303.15 K, x2 = 0.0483",893.466 ± 1.2 kg/m3
same,mass density,"[2]; 303.15 K, x2 = 0.1002",895.434 ± 1.1 kg/m3
same,mass density,"[2]; 303.15 K, x2 = 0.1519",897.493 ± 1.1 kg/m3
same,mass density,"[2]; 303.15 K, x2 = 0.1997",899.493 ± 1 kg/m3
same,mass density,"[2]; 303.15 K, x2 = 0.2393",901.221 ± 0.99 kg/m3
same,mass density,"[2]; 303.15 K, x2 = 0.2476",901.59 ± 0.99 kg/m3
same,mass density,"[2]; 303.15 K, x2 = 0.3501",906.436 ± 0.9 kg/m3
same,mass density,"[2]; 303.15 K, x2 = 0.3985",908.906 ± 0.86 kg/m3
same,mass density,"[2]; 303.15 K, x2 = 0.4499",911.682 ± 0.81 kg/m3
same,mass density,"[2]; 303.15 K, x2 = 0.4966",914.34 ± 0.78 kg/m3
same,mass density,"[2]; 303.15 K, x2 = 0.5031",914.737 ± 0.77 kg/m3
same,mass density,"[2]; 303.15 K, x2 = 0.6119",921.563 ± 0.69 kg/m3
same,mass density,"[2]; 303.15 K, x2 = 0.6471",923.963 ± 0.67 kg/m3
same,mass density,"[2]; 303.15 K, x2 = 0.7275",929.874 ± 0.61 kg/m3
same,mass density,"[2]; 303.15 K, x2 = 0.7491",931.575 ± 0.59 kg/m3
same,mass density,"[2]; 303.15 K, x2 = 0.7969",935.498 ± 0.56 kg/m3
same,mass density,"[2]; 303.15 K, x2 = 0.8463",939.82 ± 0.53 kg/m3
same,mass density,"[2]; 303.15 K, x2 = 0.8986",944.764 ± 0.5 kg/m3
same,mass density,"[2]; 303.15 K, x2 = 0.9475",949.713 ± 0.47 kg/m3
CCOCCO [2-ethoxyethan-1-ol] + COCCO,mass density,"[2]; 293.15 K, x2 = 0.1511",933.958 ± 0.32 kg/m3
same,mass density,"[2]; 293.15 K, x2 = 0.2029",935.531 ± 0.32 kg/m3
same,mass density,"[2]; 293.15 K, x2 = 0.3043",938.709 ± 0.31 kg/m3
same,mass density,"[2]; 293.15 K, x2 = 0.3503",940.193 ± 0.31 kg/m3
same,mass density,"[2]; 293.15 K, x2 = 0.5024",945.313 ± 0.31 kg/m3
same,mass density,"[2]; 293.15 K, x2 = 0.5514",947.031 ± 0.3 kg/m3
same,mass density,"[2]; 293.15 K, x2 = 0.6992",952.448 ± 0.3 kg/m3
same,mass density,"[2]; 293.15 K, x2 = 0.7482",954.326 ± 0.3 kg/m3
same,mass density,"[2]; 293.15 K, x2 = 0.798",956.272 ± 0.29 kg/m3
same,mass density,"[2]; 293.15 K, x2 = 0.7992",956.321 ± 0.29 kg/m3
same,mass density,"[2]; 293.15 K, x2 = 0.8504",958.373 ± 0.29 kg/m3
same,mass density,"[2]; 293.15 K, x2 = 0.8997",960.393 ± 0.29 kg/m3
same,mass density,"[2]; 293.15 K, x2 = 0.9488",962.456 ± 0.29 kg/m3
same,mass density,"[2]; 298.15 K, x2 = 0.0536",926.563 ± 0.33 kg/m3
same,mass density,"[2]; 298.15 K, x2 = 0.1039",928.032 ± 0.32 kg/m3
same,mass density,"[2]; 298.15 K, x2 = 0.151",929.431 ± 0.32 kg/m3
same,mass density,"[2]; 298.15 K, x2 = 0.1517",929.455 ± 0.32 kg/m3
same,mass density,"[2]; 298.15 K, x2 = 0.3523",935.724 ± 0.32 kg/m3
same,mass density,"[2]; 298.15 K, x2 = 0.3757",936.488 ± 0.32 kg/m3
same,mass density,"[2]; 298.15 K, x2 = 0.4166",937.846 ± 0.31 kg/m3
same,mass density,"[2]; 298.15 K, x2 = 0.4509",939.002 ± 0.31 kg/m3
same,mass density,"[2]; 298.15 K, x2 = 0.5507",942.46 ± 0.31 kg/m3
same,mass density,"[2]; 298.15 K, x2 = 0.5981",944.155 ± 0.31 kg/m3
same,mass density,"[2]; 298.15 K, x2 = 0.7494",949.818 ± 0.3 kg/m3
same,mass density,"[2]; 298.15 K, x2 = 0.7987",951.747 ± 0.3 kg/m3
same,mass density,"[2]; 298.15 K, x2 = 0.8423",953.488 ± 0.3 kg/m3
same,mass density,"[2]; 298.15 K, x2 = 0.8475",953.698 ± 0.3 kg/m3
same,mass density,"[2]; 298.15 K, x2 = 0.9002",955.855 ± 0.3 kg/m3
same,mass density,"[2]; 298.15 K, x2 = 0.9483",957.869 ± 0.29 kg/m3
same,mass density,"[2]; 303.15 K, x2 = 0.1537",924.945 ± 0.33 kg/m3
same,mass density,"[2]; 303.15 K, x2 = 0.1543",924.961 ± 0.33 kg/m3
same,mass density,"[2]; 303.15 K, x2 = 0.2017",926.398 ± 0.33 kg/m3
same,mass density,"[2]; 303.15 K, x2 = 0.2495",927.868 ± 0.32 kg/m3
same,mass density,"[2]; 303.15 K, x2 = 0.3013",929.498 ± 0.32 kg/m3
same,mass density,"[2]; 303.15 K, x2 = 0.402",932.768 ± 0.32 kg/m3
same,mass density,"[2]; 303.15 K, x2 = 0.4505",934.39 ± 0.32 kg/m3
same,mass density,"[2]; 303.15 K, x2 = 0.4985",936.037 ± 0.32 kg/m3
same,mass density,"[2]; 303.15 K, x2 = 0.5505",937.856 ± 0.31 kg/m3
same,mass density,"[2]; 303.15 K, x2 = 0.5979",939.553 ± 0.31 kg/m3
same,mass density,"[2]; 303.15 K, x2 = 0.6504",941.473 ± 0.31 kg/m3
same,mass density,"[2]; 303.15 K, x2 = 0.6979",943.248 ± 0.31 kg/m3
same,mass density,"[2]; 303.15 K, x2 = 0.7488",945.193 ± 0.31 kg/m3
same,mass density,"[2]; 303.15 K, x2 = 0.7998",947.188 ± 0.3 kg/m3
same,mass density,"[2]; 303.15 K, x2 = 0.9001",951.244 ± 0.3 kg/m3
CCCOCCO [2-propoxyethanol],mass density,[1]; 293.15 K,911.515 ± 0.56 kg/m3
same,speed of sound,[1]; 293.15 K,1316.6 ± 1.2 m/s
same,mass density,[1]; 298.15 K,907.151 ± 0.57 kg/m3
same,speed of sound,[1]; 298.15 K,1298.6 ± 1.2 m/s
same,mass density,[1]; 303.15 K,902.736 ± 0.58 kg/m3
same,speed of sound,[1]; 303.15 K,1281.1 ± 1.2 m/s
CCCCOCCO [2-butoxyethan-1-ol],mass density,[1]; 293.15 K,900.094 ± 1.5 kg/m3
same,speed of sound,[1]; 293.15 K,1322.5 ± 2.1 m/s
same,mass density,[1]; 298.15 K,895.91 ± 1.5 kg/m3
same,speed of sound,[1]; 298.15 K,1304.9 ± 2.1 m/s
same,mass density,[1]; 303.15 K,891.697 ± 1.5 kg/m3
same,speed of sound,[1]; 303.15 K,1288 ± 2.1 m/s
CCOCCO [2-ethoxyethan-1-ol],mass density,[1]; 293.15 K,929.545 ± 0.32 kg/m3
same,speed of sound,[1]; 293.15 K,1319.9 ± 0.84 m/s
same,mass density,[1]; 298.15 K,925.027 ± 0.33 kg/m3
same,speed of sound,[1]; 298.15 K,1301.7 ± 0.83 m/s
same,mass density,[1]; 303.15 K,920.457 ± 0.33 kg/m3
same,speed of sound,[1]; 303.15 K,1284.2 ± 0.82 m/s
COCCOCCO [2-(2-methoxyethoxy)ethanol],mass density,[1]; 293.15 K,1019.81 ± 1.3 kg/m3
same,speed of sound,[1]; 293.15 K,1432.4 ± 2.1 m/s
same,mass density,[1]; 298.15 K,1015.41 ± 1.3 kg/m3
same,speed of sound,[1]; 298.15 K,1415.2 ± 2.1 m/s
same,mass density,[1]; 303.15 K,1010.91 ± 1.2 kg/m3
same,speed of sound,[1]; 303.15 K,1397.9 ± 2.1 m/s
